Earlier results in patent US20210308030A1, “SYSTEM, METHODS AND KITS FOR DIAGNOSIS AND TREATMENT OF FEMALE PATTERN HAIR LOSS” (Follea International, priority 2020, published 2021).

Columns and labels:
FPHL patients = conditions: both 2% and 5% minoxidil

SMILES | water solubility | risk for adverse events (FPHL patients)
O=c1c(-c2ccc(O)cc2)coc2cc(O)ccc12 [daidzein] | poor | –
Nc1cc(N2CCCCC2)nc(N)[n+]1[O-] [minoxidil] | – | low
O=c1c(-c2ccc(O)cc2)coc2cc(O)cc(O)c12 [genistein] | poor | –
